Experimental data taken from patent US20170333391A1, “METHOD FOR DELAYING THE ONSET OF PULMONARY FIBROSIS OR TREATING PULMONARY FIBROSIS” (EVERFRONT BIOTECH INC., priority 2016, published 2017).

Key:
[1] = system: Rat type II alveolar cell, L2 cell line; assay: Cell survival test (MTT analysis) under H2O2 oxidative stress; format: cell-based; conditions: 24 hours, control group = 100%
Protocol: The rat type II alveolar cell, L2 cell line (ATCC® CCL149™) were seeded into a 96-well plate at a density of 5×10^3 cells/well, 48 wells in total (separated into a control group and five experimental groups, 8 wells for each group). The cells were cultured until the next day, and then the mediums were removed. Each group was respectively treated under the following conditions to conduct follow-up experiments:
(1) Control group: cells were cultured in a F-12K medium (Kaighn's Modification of Ham's F-12 Medium, ATCC® 30-2004™) for 24 hours;
(2) Group 1: cells were cultured in a F-12K medium containing H2O2 (0.1 mM) for 24 hours;
(3) Group 2: cells were cultured in a F-12K medium containing H2O2 (0.1 mM) and compound (1) (5 μg/ml) for 24 hours;
(4) Group 3: cells were cultured in a F-12K medium containing H2O2 (0.1 mM) and N-acetylcysteine (NAC) (2 mM) for 24 hours;
(5) Group 4: cells were cultured in a F-12K medium containing H2O2 (0.2 mM) and compound (1) (5 μg/ml) for 24 hours; and
(6) Group 5: cells were cultured in a F-12K medium containing H2O2 (0.2 mM) and NAC (2 mM) for 24 hours.
The mediums were removed after culturing was complete, and then each group was respectively treated under the following conditions: F-12K mediums containing 10% of 3-(4,5-Dimethylthiazol-2-yl)-2,5-diphenyltetrazolium bromide (MTT) were added into each well, and cultured for 1 hour. Thereafter, the mediums were removed, and a suitable amount of dimethyl sulfoxide (DMSO) was added into the wells. An Enzyme-Linked ImmunoSorbent Assay reader (ELISA reader) was then used for detecting the absorbance of each group at a wavelength of 595 nm (OD595nm). The average value of each group was respectively calculated (n=8), and then the result of the control group served as the basis for calculating the relative survival rates of the other groups.

BMP-7 protein [2] = assay: BMP-7 protein expression in TGF-β1-induced NHLF, western blotting (2-2); format: cell-based, human; conditions: TGF-β1-only control group = 1
Protocol: (§1) Normal Human lung fibroblasts (NHLF) were seeded into 6 cm culture dishes at a density of 2×10^5 cells/dish, comprising a control group and six experimental groups (7 dishes in total). The cells were cultured until the next day, and then the mediums were removed. Each group was respectively treated under the following conditions to conduct follow-up experiments: • (1) Positive control group: cells were cultured in a FGM-2 medium containing 1% serum and TGF-β1 (5 ng/ml) for 36 hours; • (2) Group I: cells were firstly cultured in a FGM-2 medium containing 1% serum and TGF-β1 (5 ng/ml) for 12 hours, and then compound (1) was added into the medium to provide a final concentration of 15 μg/ml; thereafter, the cells were cultured for another 24 hours; • (3) Group II: cells were firstly cultured in a FGM-2 medium containing 1% serum and TGF-β1 (5 ng/ml) for 12 hours, and then compound (1) was added into the medium to provide a final concentration of 25 μg/ml; thereafter, the cells were cultured for another 24 hours; • (4) Group III: cells were firstly cultured in a FGM-2 medium containing 1% serum and TGF-β1 (5 ng/ml) for 12 hours, and then compound (1) was added into the medium to provide a final concentration of 35 μg/ml; thereafter, the cells were cultured for another 24 hours; • (5) Group IV: cells were firstly cultured in a FGM-2 medium containing 1% serum and TGF-β1 (5 ng/ml) for 12 hours, and then the Pirfenidone was added into the medium to provide a final concentration of 100 μg/ml; thereafter, the cells were cultured for another 24 hours; • (6) Group V: cells were firstly cultured in a FGM-2 medium containing 1% serum and TGF-β1 (5 ng/ml) for 12 hours, and then the Pirfenidone was added into the medium to provide a final concentration of 250 μg/ml; thereafter, the cells were cultured for another 24 hours; and • (7) Group VI: cells were firstly cultured in a FGM-2 medium containing 1% serum and TGF-β1 (5 ng/ml) for 12 hours, and then the Pirfenidone was added into the medium to provide a final concentration of 500 μg/ml; thereafter, the cells were cultured for another 24 hours.
(§2) Thereafter, the proteins in the cells of each group were extracted, and the expressions of type I collagen, BMP-7 protein and TGF-β protein in the NHLF cells of each group were measured with western blotting. The results of the control group served as the basis for calculating the relative expression levels of the other groups.

TGF-β protein [3] = assay: TGF-β protein expression in TGF-β1-induced NHLF, western blotting (2-2); format: cell-based, human; conditions: TGF-β1-only control group = 1
Protocol: as §1, §2

type I collagen = assay: Type I collagen expression in TGF-β1-induced NHLF, western blotting (2-2); format: cell-based, human; conditions: TGF-β1-only control group = 1
Protocol: as §1, §2

TGF-β protein [4] = assay: TGF-β protein expression in TGF-β1-induced NHLF, western blotting (Example 4); format: cell-based, human; conditions: uninduced control = 1, TGF-β1-only group A = 1.75
Protocol: (§3) Normal Human lung fibroblasts (NHLF) were seeded into 6 cm culture dishes at a density of 2×10^5 cells/dish, comprising a control group and five experimental groups (6 dishes in total). The cells were cultured until the next day, and then the mediums were removed. Each group was respectively treated under the following conditions to conduct follow-up experiments: • (1) Control group: cells were cultured in a FGM-2 medium containing 1% serum for 36 hours; • (2) Group A: cells were cultured in a FGM-2 medium containing 1% serum and TGF-β1 (5 ng/ml) for 36 hours; • (3) Group B: cells were firstly cultured in a FGM-2 medium containing 1% serum and TGF-β1 (5 ng/ml) for 12 hours, and then compound (1) was added into the medium to provide a final concentration of 15 μg/ml; thereafter, the cells were cultured for another 24 hours; • (4) Group C: cells were firstly cultured in a FGM-2 medium containing 1% serum and TGF-β1 (5 ng/ml) for 12 hours, and then compound (1) was added into the medium to provide a final concentration of 30 μg/ml; thereafter, the cells were cultured for another 24 hours; • (5) Group D: cells were firstly cultured in a FGM-2 medium containing 1% serum and TGF-β1 (5 ng/ml) for 12 hours, and then compound (2) was added into the medium to provide a final concentration of 100 μg/ml; thereafter, the cells were cultured for another 24 hours; and • (6) Group E: cells were firstly cultured in a FGM-2 medium containing 1% serum and TGF-β1 (5 ng/ml) for 12 hours, and then compound (2) was added into the medium to provide a final concentration of 200 μg/ml; thereafter, the cells were cultured for another 24 hours.
as §2, with “of” for “of type I collagen,”, “BMP-7 protein, TGF-β” for “BMP-7”, “p-smad2/3” for “TGF-β”

BMP-7 protein [5] = assay: BMP-7 protein expression in TGF-β1-induced NHLF, western blotting (Example 4); format: cell-based, human; conditions: uninduced control = 1, TGF-β1-only group A = 0.19
Protocol: as §3
as §2, with “of” for “of type I collagen,”, “BMP-7 protein, TGF-β” for “BMP-7”, “p-smad2/3” for “TGF-β”

p-smad2/3 protein = p-smad2/3 protein expression in TGF-β1-induced NHLF, western blotting (Example 4); format: cell-based, human; conditions: uninduced control = 1, TGF-β1-only group A = 1.42
Protocol: as §3
as §2, with “of” for “of type I collagen,”, “BMP-7 protein, TGF-β” for “BMP-7”, “p-smad2/3” for “TGF-β”

[6] = Group IV: TGF-β1 5 ng/ml 12 h, then Pirfenidone 100 μg/ml 24 h
[7] = Group V: TGF-β1 5 ng/ml 12 h, then Pirfenidone 250 μg/ml 24 h
[8] = Group VI: TGF-β1 5 ng/ml 12 h, then Pirfenidone 500 μg/ml 24 h
[9] = Group D: TGF-β1 5 ng/ml 12 h, then compound (2) 100 μg/ml 24 h
[10] = Group E: TGF-β1 5 ng/ml 12 h, then compound (2) 200 μg/ml 24 h

Work on CC(=O)N[C@@H](CS)C(=O)O [NAC, N-acetylcysteine, reference compound] yielded a Relative survival rate ([1]; Group 3: H2O2 0.1 mM + NAC 2 mM, H2O2 0.1 mM alone = 38.9%) of 101.9% and a Relative survival rate ([1]; Group 5: H2O2 0.2 mM + NAC 2 mM) of 83.1%.

With Cc1ccc(=O)n(-c2ccccc2)c1 [Pirfenidone, reference compound] the “Relative expression level (fold) BMP-7 protein” value (BMP-7 protein [2]; [6]) was 1.52 fold, the “Relative expression level (fold) BMP-7 protein” value (BMP-7 protein [2]; [7]) was 1.43 fold and the “Relative expression level (fold) BMP-7 protein” value (BMP-7 protein [2]; [8]) was 1.34 fold. For the same compound, the “Relative expression level (fold) TGF-β protein” value (TGF-β protein [3]; [6]) was 0.67 fold, the “Relative expression level (fold) TGF-β protein” value (TGF-β protein [3]; [7]) was 0.64 fold and the “Relative expression level (fold) TGF-β protein” value (TGF-β protein [3]; [8]) was 0.67 fold. The “Relative expression level (fold) Type I collagen” value (type I collagen; [6]) was 0.95 fold, the “Relative expression level (fold) Type I collagen” value (type I collagen; [7]) was 0.57 fold and the “Relative expression level (fold) Type I collagen” value (type I collagen; [8]) was 0.50 fold.

In the case of CCCCC(=O)c1ccccc1C(=O)O [compound (2)], the “Relative expression level (fold) TGF-β protein” value (TGF-β protein [4]; [9]) is reported as 0.46 fold, the “Relative expression level (fold) TGF-β protein” value (TGF-β protein [4]; [10]) is reported as 0.29 fold and the “Relative expression level (fold) BMP-7 protein” value (BMP-7 protein [5]; [9]) is reported as 0.11 fold. For the same compound, the “Relative expression level (fold) BMP-7 protein” value (BMP-7 protein [5]; [10]) was 0.08 fold, the “Relative expression level (fold) p-smad2/3 protein” value (p-smad2/3 protein; [9]) was 1.12 fold and the “Relative expression level (fold) p-smad2/3 protein” value (p-smad2/3 protein; [10]) was 1.05 fold.
